Experimental data taken from patent US20200138031A1, “MIXTURES OF SABADILLA ALKALOIDS AND N-OCTYL BICYCLOHEPTENE DICARBOXIMIDE AND USES THEREOF” (priority 2016, published 2020).

Key:
Assay type in all cases: in vivo
[1] = test system: bed bug (Cimex lectularius); experiment: direct spray bioassay against bed bug; conditions: for % Mortality: Hour 4; for mortality at 0.05 % strength / mortality at 0.5 % strength / mortality at 5 % strength: Cimex lectularius
Method: (§1) To determine if the mixtures provided unexpected results, the observed combined efficacy (“OCE”) was divided by the expected combined efficacy (“ECE”) to give an OCE/ECE ratio wherein the expected ECE is calculated by the Abbott method: […]
(§2) wherein ECE is the expected combined efficacy and in which A and B are the efficacy provided by the single active ingredients. If the ratio between the OCE of the mixture and the ECE of the mixture is greater than 1, then greater than expected interactions are present in the mixture. (Gisi, The American Phytopathological Society, 86:11, 1273-1279, 1996).
(§3) A direct spray bioassay for a mixture of sabadilla and MGK264 bed bug (Cimex lectularius) was conducted on February 27 to Mar. 6, 2019. A water-based formulation containing Sabadilla alone, MGK264 alone, or these combinations were prepared using test products and distilled water. Ten adults (1:1 sex ratio) of the bed bug (Cimex lectularius) were put into 200 mL clean cup (80 mm diameter×45 mm height) laid a filter paper (82 mm diameter) at the bottom. The cup was set on the bottom of CSMA chamber (460 mm×460 mm×700 mm height), and 0.5 mL of water (control) or water-based formulation of test products was sprayed from the distance of 60 cm toward the cup at the air pressure of 0.041 MPa (0.42 kg/cm2). […] The test was repeated 4 times and calculated mortality (%) at each observation point.

[2] = test system: Yellow fever mosquito (Aedes aegypti); experiment: whole plant or invertebrate; conditions: for % Mortality: Hour 4; for mortality at 0.05 % strength / mortality at 0.5 % strength / mortality at 1 % strength / mortality: Aedes aegypti; for mortality at 1 % strength: 1.0 % w/w
Method: A direct spray bioassay for a mixture of sabadilla and N-octyl bycloheptene dicarboximide (MGK264) against Yellow fever mosquito (Aedes aegypti) was conducted on Sep. 20-27, 2019. A water-based formulation containing Sabadilla alone, MGK264 alone, or these combinations were prepared using test products and distilled water. Ten adults (females) of the mosquito were put into 650 mL clean cup (100 mm diameter×70 mm height) laid a filter paper (106 mm diameter) at the bottom, and the cup was covered with 1 mm mesh nylon net. The cup was set on the bottom of CSMA chamber (460 mm×460 mm×700 mm height), and 0.5 mL of water (control) or water-based formulation of test products was sprayed from the distance of 30 cm toward the cup at the air pressure of 0.039 MPa (0.4 kg/cm2). […] The test was repeated 4 times and calculated mortality (%) at each observation point.
as §1, §2

[3] = test system: German cockroach (Blattella germanica); experiment: direct spray bioassay against German cockroach; conditions: for % Mortality: Hour 4; for mortality at 0.05 % strength / mortality at 0.5 % strength / mortality at 5 % strength: Blattella germanica
Method: as §1, §2
as §3, with “MGK264 against German cockroach (Blattella germanica)” for “MGK264 bed bug (Cimex lectularius)”, “on Feb. 13-20,” for “on February 27 to Mar. 6,”, “the cockroach” for “the bed bug (Cimex lectularius)”, “and 1.5” for “and 0.5”

## CCCCC(CC)CN1C(=O)C2C3C=CC(C3)C2C1=O (stereo not shown) [MGK264, N-octyl bicycloheptene dicarboximide]
[1]; 0.05 % w/w
  % Mortality: 0.0%
[1]; 0.5 % w/w
  % Mortality: 0.0%
[1]; 5.0 % w/w
  % Mortality: 0.0%
[1]; 24 h, 0.05 % w/w, Day 1
  mortality at 0.05 % strength: 0%
[1]; 24 h, 0.5 % w/w, Day 1
  mortality at 0.5 % strength: 0%
[1]; 24 h, 5.0 % w/w, Day 1
  mortality at 5 % strength: 0%
[1]; 48 h, 0.05 % w/w, Day 2
  mortality at 0.05 % strength: 0%
[1]; 48 h, 0.5 % w/w, Day 2
  mortality at 0.5 % strength: 0%
[1]; 48 h, 5.0 % w/w, Day 2
  mortality at 5 % strength: 0%
[1]; 120 h, 0.05 % w/w, Day 5
  mortality at 0.05 % strength: 0%
[1]; 120 h, 0.5 % w/w, Day 5
  mortality at 0.5 % strength: 0%
[1]; 120 h, 5.0 % w/w, Day 5
  mortality at 5 % strength: 0%
[1]; 144 h, 0.05 % w/w, Day 6
  mortality at 0.05 % strength: 0%
[1]; 144 h, 0.5 % w/w, Day 6
  mortality at 0.5 % strength: 0%
[1]; 144 h, 5.0 % w/w, Day 6
  mortality at 5 % strength: 0%
[1]; 168 h, 0.05 % w/w, Day 7
  mortality at 0.05 % strength: 0%
[1]; 168 h, 0.5 % w/w, Day 7
  mortality at 0.5 % strength: 0%
[1]; 168 h, 5.0 % w/w, Day 7
  mortality at 5 % strength: 0%
[1]; 0.05 % w/w, Hour 1
  mortality at 0.05 % strength: 0%
[1]; 0.5 % w/w, Hour 1
  mortality at 0.5 % strength: 0%
[1]; 5.0 % w/w, Hour 1
  mortality at 5 % strength: 0%
[2]; 0.05 % w/w
  % Mortality: 0.0%
[2]; 0.1 % w/w
  % Mortality: 0.0%
[2]; 0.5 % w/w
  % Mortality: 0.0%
[2]; 24 h, 0.05 % w/w, Day 1
  mortality at 0.05 % strength: 0%
[2]; 24 h, 0.5 % w/w, Day 1
  mortality at 0.5 % strength: 0%
[2]; 24 h, Day 1
  mortality at 1 % strength: 10%
  mortality: 0%
[2]; 48 h, 0.5 % w/w, Day 2
  mortality at 0.5 % strength: 0%
[2]; 48 h, Day 2
  mortality at 1 % strength: 12.5%
[2]; 120 h, 0.05 % w/w, Day 5
  mortality at 0.05 % strength: 0%
[2]; 120 h, 0.5 % w/w, Day 5
  mortality at 0.5 % strength: 0%
[2]; 120 h, Day 5
  mortality at 1 % strength: 12.5%
[2]; 144 h, 0.5 % w/w, Day 6
  mortality at 0.5 % strength: 0%
[2]; 144 h, Day 6
  mortality at 1 % strength: 12.5%
[2]; 168 h, 0.05 % w/w, Day 7
  mortality at 0.05 % strength: 0%
[2]; 168 h, 0.5 % w/w, Day 7
  mortality at 0.5 % strength: 0%
[2]; 168 h, Day 7
  mortality at 1 % strength: 12.5%
  mortality: 2.5%
[2]; 0.05 % w/w, Hour 1
  mortality at 0.05 % strength: 0%
[2]; 0.5 % w/w, Hour 1
  mortality at 0.5 % strength: 0%
[2]; Hour 1
  mortality at 1 % strength: 7.5%
  mortality: 0%
[3]; 0.05 % w/w
  % Mortality: 0.0%
[3]; 0.5 % w/w
  % Mortality: 0.0%
[3]; 5.0 % w/w
  % Mortality: 0.0%
[3]; 24 h, 0.05 % w/w, Day 1
  mortality at 0.05 % strength: 0%
[3]; 24 h, 0.5 % w/w, Day 1
  mortality at 0.5 % strength: 0%
[3]; 24 h, 5.0 % w/w, Day 1
  mortality at 5 % strength: 0%
[3]; 48 h, 0.05 % w/w, Day 2
  mortality at 0.05 % strength: 0%
[3]; 48 h, 0.5 % w/w, Day 2
  mortality at 0.5 % strength: 0%
[3]; 48 h, 5.0 % w/w, Day 2
  mortality at 5 % strength: 0%
[3]; 120 h, 0.05 % w/w, Day 5
  mortality at 0.05 % strength: 2.6%
[3]; 120 h, 0.5 % w/w, Day 5
  mortality at 0.5 % strength: 0%
[3]; 120 h, 5.0 % w/w, Day 5
  mortality at 5 % strength: 0%
[3]; 144 h, 0.05 % w/w, Day 6
  mortality at 0.05 % strength: 2.6%
[3]; 144 h, 0.5 % w/w, Day 6
  mortality at 0.5 % strength: 0%
[3]; 144 h, 5.0 % w/w, Day 6
  mortality at 5 % strength: 0%
[3]; 168 h, 0.05 % w/w, Day 7
  mortality at 0.05 % strength: 2.6%
[3]; 168 h, 0.5 % w/w, Day 7
  mortality at 0.5 % strength: 0%
[3]; 168 h, 5.0 % w/w, Day 7
  mortality at 5 % strength: 0%
[3]; 0.05 % w/w, Hour 1
  mortality at 0.05 % strength: 0%
[3]; 0.5 % w/w, Hour 1
  mortality at 0.5 % strength: 0%
[3]; 5.0 % w/w, Hour 1
  mortality at 5 % strength: 0%
